Reference: US20100285959A1, “HERBICIDAL MIXTURES” (priority 2006, published 2010)

Assays:
kochia (KCHSC) = assay: Test 27 field trial, postemergence; assay type: in vivo, Kochia scoparia; parameters: scale not given here
Description: Wheat seeds (cv. ‘Custer’) were planted in late fall season in a clay loam soil. Plots were 9 m long by 1.8 m wide. The field was managed using conventional tillage practices. […] All treatments also included a surfactant. […] Results are the means of the three replicates.

common ragweed (AMBEL) [1] = assay: Test 25 field trial, postemergence, growth as percent of control; assay type: in vivo, Ambrosia artemisiifolia
Description: Corn seeds (hybrid ‘Pioneer 31G96 RR’) were planted in mid spring season, 3.8 cm deep in a clay loam soil having 2% organic matter and a pH of 6.6. Plots were 6.1 m long by 3.0 m wide with rows spaced 76 cm apart. Seeds were spaced 15 cm apart within the rows. The field was managed using conventional tillage practices. […] Giant ragweed and Pennsylvania smartweed could only be evaluated 14 days after application. […] Results are the means of the three replicates. This growth inhibition data was converted to results in the form of “plant growth as a percent of control plant growth” using the calculation “100 minus growth inhibition”.
When this form of Colby's Equation is used, if the observed effects on weeds are less than the expected values, the mixture is synergistic.

common ragweed (AMBEL) [2] = assay: Test 26 field trial, postemergence; assay type: in vivo, Ambrosia artemisiifolia; parameters: scale not given here
Description: (§1) Corn seeds (hybrid ‘Pioneer 31G96’) were planted in mid spring season, 3.8 cm deep in a silt loam soil having 2% organic matter and a pH of 6.6. Plots were 6.1 m long by 3.0 m wide with rows spaced 76 cm apart. Seeds were spaced 15 cm apart within the rows. The field was managed using conventional tillage practices. […] All treatments also included a surfactant. […] Some of the weed species could not be evaluated at every timing. […] Results are the means of the three replicates.

velvetleaf (ABUTH) = assay: Test 16 greenhouse, post- and preemergence; settings: 15 DAA
corn (ZEAMD) [3] = assay: Test 26 field trial, postemergence; assay type: in vivo, Zea mays ssp. indentata; parameters: scale not given here
Description: as §1

dry-seeded rice (ORYSA) = assay: Test 28 greenhouse, postemergence; assay type: in vivo, Oryza sativa; settings: 26 DAA
Method: A greenhouse test was conducted to evaluate the effects on the plant species corn (ZEAMD, Zea mays ssp. indentata), sorghum (SORVU, Sorghum vulgare L.), dry-seeded rice (ORYSA, Oryza sativa L.), wheat (TRZAW, Triticum aestivum L.), ivyleaf morningglory (IPOHE, Ipomoea hederacea (L.) JACQ.), and barnyardgrass (ECHCG, Echinochloa crus-galli (L.) P. BEAUV.), of mixtures of Compound 2 with isoxadifen-ethyl. Corn, sorghum, rice, wheat, ivyleaf morningglory and barnyardgrass seeds were planted in RediEarth, a commercial potting medium. […] Corn plants were treated postemergence at the V2 growth stage, and sorghum, rice, wheat, ivyleaf morningglory, and barnyardgrass plants were treated postemergence at the 3-leaf stage. […] Each treatment was replicated three times. […] Plants were watered as needed.

corn (ZEAMD) [4] = assay: Test 31 field trial, corn hybrids at V4 growth stage; assay type: in vivo, Zea mays ssp. indentata; settings: postemergence, 14 DAA; for 34A15 Obs: corn hybrid 34A15; for 34N43 Obs: corn hybrid 34N43; for 35D28 Obs: corn hybrid 35D28; for 3730 Obs: corn hybrid 3730
Description: Corn seeds of hybrids Pioneer ‘34A15’, ‘34N43’, ‘35D28’, and ‘3730’ were planted in mid-spring season, approximately 3.8 cm deep in a sandy loam soil having 3.8% organic matter and a pH of 6.5. Plots were 9.1 m long by 3.0 m wide with rows spaced 76 cm apart. Seeds were spaced approximately 18 cm apart within the rows. The field was managed using conventional tillage practices. Plots were arranged with hybrid as the main block and herbicide treatments randomized within each block. Treatments were applied to corn in the V4 growth stage using a backpack sprayer delivering a spray volume of 131 L/ha with a pressure of 221 kPa. Treatments consisted of Compound 2 alone and in combination with a premix formulation of foramsulfuron and isoxadifen-ethyl, dissolved or suspended in water containing the spray adjuvants ammonium sulfate, applied at 1 kg/Ha, and methylated seed oil, applied at 1% vol/vol. Effects on the treated corn plants and untreated controls were recorded 14 days after application.

## COC(=O)c1nc(C2CC2)nc(N)c1Cl [Compound 2, methyl 6-amino-5-chloro-2-cyclopropyl-4-pyrimidinecarboxylate]
Kochia (KCHSC); 16 DAA, 15 g a.i./ha
  KCHSC Obs: 30
Kochia (KCHSC); 16 DAA, 30 g a.i./ha
  KCHSC Obs: 65
Kochia (KCHSC); 16 DAA, 45 g a.i./ha
  KCHSC Obs: 78
Kochia (KCHSC); 28 DAA, 15 g a.i./ha
  KCHSC Obs: 43
Kochia (KCHSC); 28 DAA, 30 g a.i./ha
  KCHSC Obs: 79
Kochia (KCHSC); 28 DAA, 45 g a.i./ha
  KCHSC Obs: 94
Kochia (KCHSC); 49 DAA, 15 g a.i./ha
  KCHSC Obs: 32
Kochia (KCHSC); 49 DAA, 30 g a.i./ha
  KCHSC Obs: 73
Kochia (KCHSC); 49 DAA, 45 g a.i./ha
  KCHSC Obs: 96
Common ragweed (AMBEL) [1]; Cpd 2 15 g a.i./ha, 14 DAA
  AMBEL Obs (percent of control): 20%
Common ragweed (AMBEL) [1]; Cpd 2 15 g a.i./ha, 28 DAA
  AMBEL Obs (percent of control): 16%
Common ragweed (AMBEL) [1]; Cpd 2 15 g a.i./ha, 56 DAA
  AMBEL Obs (percent of control): 0%
Common ragweed (AMBEL) [1]; Cpd 2 30 g a.i./ha, 14 DAA
  AMBEL Obs (percent of control): 22%
Common ragweed (AMBEL) [1]; Cpd 2 30 g a.i./ha, 28 DAA
  AMBEL Obs (percent of control): 12%
Common ragweed (AMBEL) [1]; Cpd 2 30 g a.i./ha, 56 DAA
  AMBEL Obs (percent of control): 0%
Common ragweed (AMBEL) [1]; Cpd 2 45 g a.i./ha, 14 DAA
  AMBEL Obs (percent of control): 12%
Common ragweed (AMBEL) [1]; Cpd 2 45 g a.i./ha, 28 DAA
  AMBEL Obs (percent of control): 8%
Common ragweed (AMBEL) [1]; Cpd 2 45 g a.i./ha, 56 DAA
  AMBEL Obs (percent of control): 0%
Common ragweed (AMBEL) [2]; 14 DAA, 30 g a.i./ha
  AMBEL Obs: 94
Common ragweed (AMBEL) [2]; 14 DAA, 45 g a.i./ha
  AMBEL Obs: 67
Common ragweed (AMBEL) [2]; 14 DAA, 60 g a.i./ha
  AMBEL Obs: 98
Common ragweed (AMBEL) [2]; 28 DAA, 30 g a.i./ha
  AMBEL Obs: 88
Common ragweed (AMBEL) [2]; 28 DAA, 45 g a.i./ha
  AMBEL Obs: 95
Common ragweed (AMBEL) [2]; 28 DAA, 60 g a.i./ha
  AMBEL Obs: 98
Common ragweed (AMBEL) [2]; 56 DAA, 30 g a.i./ha
  AMBEL Obs: 73
Common ragweed (AMBEL) [2]; 56 DAA, 45 g a.i./ha
  AMBEL Obs: 95
Common ragweed (AMBEL) [2]; 56 DAA, 60 g a.i./ha
  AMBEL Obs: 95
Velvetleaf (ABUTH); Postemergence, 15 g a.i./ha
  Obs response, scale 0 to 100: 33
Velvetleaf (ABUTH); Postemergence, 30 g a.i./ha
  Obs response, scale 0 to 100: 38
Velvetleaf (ABUTH); Postemergence, 45 g a.i./ha
  Obs response, scale 0 to 100: 61
Velvetleaf (ABUTH); Preemergence, 15 g a.i./ha
  Obs response, scale 0 to 100: 23
Velvetleaf (ABUTH); Preemergence, 30 g a.i./ha
  Obs response, scale 0 to 100: 38
Velvetleaf (ABUTH); Preemergence, 45 g a.i./ha
  Obs response, scale 0 to 100: 42
Corn (ZEAMD) [3]; 14 DAA, 30 g a.i./ha
  ZEAMD Obs: 0
Corn (ZEAMD) [3]; 14 DAA, 45 g a.i./ha
  ZEAMD Obs: 2
Corn (ZEAMD) [3]; 14 DAA, 60 g a.i./ha
  ZEAMD Obs: 7
Corn (ZEAMD) [3]; 28 DAA, 30 g a.i./ha
  ZEAMD Obs: 2
Corn (ZEAMD) [3]; 28 DAA, 45 g a.i./ha
  ZEAMD Obs: 3
Corn (ZEAMD) [3]; 28 DAA, 60 g a.i./ha
  ZEAMD Obs: 5
Corn (ZEAMD) [3]; 56 DAA, 30 g a.i./ha
  ZEAMD Obs: 0
Corn (ZEAMD) [3]; 56 DAA, 45 g a.i./ha
  ZEAMD Obs: 0
Corn (ZEAMD) [3]; 56 DAA, 60 g a.i./ha
  ZEAMD Obs: 7
dry-seeded rice (ORYSA); Cpd 2 32 g a.i./ha
  ORYSA Obs: 60
dry-seeded rice (ORYSA); Cpd 2 64 g a.i./ha
  ORYSA Obs: 83
Corn (ZEAMD) [4]; Cpd 2 30 g a.i./ha
  34A15 Obs: 25
  34N43 Obs: 15%
  35D28 Obs: 60
  3730 Obs: 60
Corn (ZEAMD) [4]; Cpd 2 60 g a.i./ha
  34A15 Obs: 30
  34N43 Obs: 20%
  35D28 Obs: 65
  3730 Obs: 75
